The values below come from patent publication US20260048130A1, “ALPHA-V BETA-6 (avb6) INTEGRIN LIGANDS FOR EXTRAHEPATIC DELIVERY” (Alnylam Pharmaceuticals, Inc., priority 2022, published 2026).

Series [1] has as its system Sod1 mRNA. As to the kind of experiment: Sod1 mRNA knockdown in mouse lung after intranasal administration (RT-qPCR). The format is in vivo. As to conditions: for % Sod1 Remaining: Day 10, relative to PBS. On the procedure: Heart and quadricep powder were homogenized and lysed in 750 μL of QIAzol Lysis Reagent for 5 minutes×2 at 25 Hz using a TissueLyser. Chloroform ([…]) was thoroughly mixed with each sample and lysates were centrifugated at full speed for 15 minutes at 4° C. Total RNA was isolated from the supernatant using the RNeasy® 96 Universal Tissue Kit. Resulting RNA (1500 ng) was used for cDNA synthesis using the Applied Biosystems™ High-Capacity cDNA Reverse Transcription Kit with RNase Inhibitor. For qPCR reactions, 2 uL cDNA was used per 10 μL reaction. RT-qPCR was performed using the LightCycler® 480 Probes Master in the LightCycler® 480 Instrument system using gene specific TaqMan assays for each target mouse-specific Sod1 (ThermoFisher Scientific, Mm01344233_g1) and Gapdh (ThermoFisher Scientific, Mm99999915_g1) were used for RT-qPCR analysis. Each sample was analyzed in duplicate by RT-qPCR. Data were analyzed using the ΔΔCt method normalizing to control animals treated with 1×PBS alone.
Table 5 provides the study design used to evaluate the in vivo pharmacodynamic and/or pharmacologic activity of αvβ6 integrin targeting siRNA conjugates in mouse lung following intranasal administration.
Female mice were intranasally administered either a single 1 mg/kg or 10 mg/kg dose of the dsRNA agents conjugated to αvβ6 and at Day 10 post-dose animals were sacrificed and lung, heart, liver, and kidney tissues were collected. The level of Sod1 mRNA in the samples was determined by R^T-qPCR as described above.
A general note: Real-time PCR tracks product formation cycle by cycle.

Series [2] has as its target T1, recombinant human αvβ6 (Homo sapiens, UniProt P06756+P18564, DEL708-788).
T1 construct: purchased R&D Systems 3817AV050
As to the kind of experiment: ELISA displacement assay (αvβ6 binding to LAP/TGF1b). As to conditions: recombinant human αvβ6 vs coated human LAP/TGF1b. On the procedure: ELISA plates were coated with 0.6 ug/mL recombinant human LAP/TGF1b (R&D Systems 246LP025) in carbonate buffer (pH 9.6) overnight at 4 C. Plates were washed with PBST and blocked for 1 hour at room temperature with assay buffer (20 mM Tris-HCl, 150 mM NaCl, 2 mM CaCl2, 2 mM MgCl2, 2 mM MnCl2, 0.5% BSA, pH 7.4). Serial dilutions of competitor compound in assay buffer were added to plate, as well as 1.0 ug/mL of purified recombinant human αvβ6 (R&D Systems 3817AV050), and samples were incubated for 1 hour at room temperature. Plates were washed with PBS-T, then incubated with 2.5 ug/mL of anti-integrin av primary antibody (Sigma MAB1978) for 1 hour at room temperature. Plates were washed with PBS-T, then incubated with 2.0 ug/mL of HRP-conjugated secondary antibody for 1 hour at room temperature. Samples were incubated with TMB substrate (Thermo 34024) for 15 minutes, reaction was quenched with 3 M sulfuric acid, and absorbance was measured at 450 nm. Percent binding inhibition was calculated by normalizing to a maximum value obtained from no-competitor samples and a minimum value obtained from no-competitor-no-integrin samples. EC50 values are reported in the following ranges: “A” EC50>100 nM; “B” EC50 10-100 nM; “C” EC50<10 nM.
(In an ELISA, binding on a coated surface is turned into a signal by an enzyme label.)

In the oligonucleotide strings, read from the 5' end, every base follows the letter of its sugar. An asterisk marks phosphorothioate; unmarked linkages are phosphodiester. Other units and linkages are bracketed, terminal groups are in braces. A string of capitals states the bases alone. {Q410} = αvβ6 integrin ligand conjugate, (S,R) stereochemistry, phosphorothioate-linked; {Q411} = αvβ6 integrin ligand conjugate, (R,R) stereochemistry variant; {L352} = αvβ6 integrin ligand conjugate, (S,R) stereochemistry; {L353} = αvβ6 integrin ligand conjugate, (S,S) stereochemistry; {L373Z511} = αvβ6 integrin ligand conjugate variant; {L373Z512} = αvβ6 integrin ligand conjugate variant; {L373Z513} = αvβ6 integrin ligand conjugate variant; {L354} = αvβ6 integrin ligand conjugate; {VP} = (E)-vinylphosphonate; m = 2'-O-methyl; f = 2'-fluoro

T1 sequence (P06756 31-992 limits assumed, stated change not applied): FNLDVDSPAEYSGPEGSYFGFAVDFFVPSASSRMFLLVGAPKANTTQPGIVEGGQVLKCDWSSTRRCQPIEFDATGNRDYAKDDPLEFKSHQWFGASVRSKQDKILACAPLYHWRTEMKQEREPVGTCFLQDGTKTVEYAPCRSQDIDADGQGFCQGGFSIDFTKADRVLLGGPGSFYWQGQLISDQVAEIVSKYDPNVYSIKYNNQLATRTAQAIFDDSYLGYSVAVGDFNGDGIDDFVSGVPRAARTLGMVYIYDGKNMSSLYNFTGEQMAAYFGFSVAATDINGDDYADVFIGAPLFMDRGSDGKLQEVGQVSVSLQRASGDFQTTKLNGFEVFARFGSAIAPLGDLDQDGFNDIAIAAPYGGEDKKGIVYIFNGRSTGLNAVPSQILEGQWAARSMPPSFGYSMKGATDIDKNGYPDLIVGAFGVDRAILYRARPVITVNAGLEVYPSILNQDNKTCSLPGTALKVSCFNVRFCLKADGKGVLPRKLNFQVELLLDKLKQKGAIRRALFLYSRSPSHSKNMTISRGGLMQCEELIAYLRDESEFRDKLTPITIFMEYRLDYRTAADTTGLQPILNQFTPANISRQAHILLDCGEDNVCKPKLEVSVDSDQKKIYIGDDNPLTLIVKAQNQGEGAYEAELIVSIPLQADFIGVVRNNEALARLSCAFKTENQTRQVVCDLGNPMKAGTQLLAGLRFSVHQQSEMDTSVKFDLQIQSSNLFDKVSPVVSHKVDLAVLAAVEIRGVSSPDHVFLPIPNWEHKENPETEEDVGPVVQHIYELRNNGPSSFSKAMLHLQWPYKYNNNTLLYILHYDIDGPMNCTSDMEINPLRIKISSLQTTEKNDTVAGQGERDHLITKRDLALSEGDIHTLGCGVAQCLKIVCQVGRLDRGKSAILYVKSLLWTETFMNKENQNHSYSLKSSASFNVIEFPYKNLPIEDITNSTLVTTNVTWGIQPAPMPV
T1 sequence (P18564 22-707 limits assumed, stated change not applied): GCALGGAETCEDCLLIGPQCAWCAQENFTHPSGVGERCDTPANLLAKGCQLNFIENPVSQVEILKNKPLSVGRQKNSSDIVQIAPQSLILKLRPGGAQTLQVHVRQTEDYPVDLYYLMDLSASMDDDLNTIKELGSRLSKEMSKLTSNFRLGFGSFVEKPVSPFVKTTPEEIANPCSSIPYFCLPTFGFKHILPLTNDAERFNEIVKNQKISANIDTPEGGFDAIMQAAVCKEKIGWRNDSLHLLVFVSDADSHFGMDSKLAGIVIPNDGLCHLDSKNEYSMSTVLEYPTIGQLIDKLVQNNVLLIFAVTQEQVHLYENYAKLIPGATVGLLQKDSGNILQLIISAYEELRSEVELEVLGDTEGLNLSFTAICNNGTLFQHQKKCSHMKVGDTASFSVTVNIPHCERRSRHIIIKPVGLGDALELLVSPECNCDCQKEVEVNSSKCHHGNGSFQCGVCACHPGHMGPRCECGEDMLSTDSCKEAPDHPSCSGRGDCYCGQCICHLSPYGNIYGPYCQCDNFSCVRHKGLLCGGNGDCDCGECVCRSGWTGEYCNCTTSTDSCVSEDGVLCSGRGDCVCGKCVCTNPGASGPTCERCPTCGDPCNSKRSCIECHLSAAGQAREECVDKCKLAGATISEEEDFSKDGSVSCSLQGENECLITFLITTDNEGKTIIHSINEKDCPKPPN

In the case of “AD-1481899.1: "3′,5′ is better than the triple (AD-1481899 vs AD-1481901 as matched pair of (S,R) stereochemistry)" (sense mC*mA*mUmUmUmUfAmAfUfCfCmUmCmAmCmUmCmUmAmA*mA*{L354}; antisense {VP}-mU*fU*mUmAmGfAmGfUfGmAmGmGmAfUmUfAmAmAmAmUmG*mA*mG; siRNA)”, the “% Sod1 Remaining” value was found to be 60.0% in series [1] (single intranasal 1 mg/kg) and 52.4% in series [1] (single intranasal 10 mg/kg). Regarding “AD-1481901.1: "3′,5′ is better than the triple (AD-1481899 vs AD-1481901 as matched pair of (S,R) stereochemistry)" (sense {Q410}*mC*mAmUmUmUmUfAmAfUfCfCmUmCmAmCmUmCmUmAmA*mA*{L352}; antisense {VP}-mU*fU*mUmAmGfAmGfUfGmAmGmGmAfUmUfAmAmAmAmUmG*mA*mG; siRNA)”, the “% Sod1 Remaining” value worked out at 47.7% in series [1] (single intranasal 1 mg/kg) and 35.9% in series [1] (single intranasal 10 mg/kg). As to “AD-1481901: "inhibition of Sod1 mRNA expression in mouse quadriceps, heart, liver, and lung 21 days after a single 2 mg/kg intravenous dose" (sense {Q410}*mC*mAmUmUmUmUfAmAfUfCfCmUmCmAmCmUmCmUmAmA*mA*{L352}; antisense {VP}-mU*fU*mUmAmGfAmGfUfGmAmGmGmAfUmUfAmAmAmAmUmG*mA*mG)”, in series [1] (intranasal, matched pairs by avidity or stereochemistry), the “Sod1 knockdown in mouse lung, comparison between conjugate designs” value is “better than the triple”.

Turning to “AD-1481902.1: "inhibition of Sod1 mRNA expression in mouse quadriceps, heart, liver, and lung 21 days after a single 2 mg/kg intravenous dose" (sense {Q411}*mC*mAmUmUmUmUfAmAfUfCfCmUmCmAmCmUmCmUmAmA*mA*{L353}; antisense {VP}-mU*fU*mUmAmGfAmGfUfGmAmGmGmAfUmUfAmAmAmAmUmG*mA*mG)”, the “% Sod1 Remaining” value in series [1] (single intranasal 1 mg/kg) was found to be 77.2%; in series [1] (single intranasal 10 mg/kg), 51.2%.

Consider “AD-1481904.1: dsRNA agent targeting Sod1 conjugated to αvβ6 ligand: "3′-monos (AD-1481903 (S,R) vs AD-1481904 (S,S))" (sense mC*mA*mUmUmUmUfAmAfUfCfCmUmCmAmCmUmCmUmAmA*mA*{L353}; antisense {VP}-mU*fU*mUmAmGfAmGfUfGmAmGmGmAfUmUfAmAmAmAmUmG*mA*mG)”, for which the “% Sod1 Remaining” value amounted to 59.2% in series [1] (single intranasal 1 mg/kg) and 49.8% in series [1] (single intranasal 10 mg/kg). The EC50 is the concentration at which the effect is half-maximal. For “AD-2032892: "inhibition of Sod1 mRNA expression in mouse gastrocnemius and quadriceps 21 days after a single 2 mg/kg intravenous dose of AD-2032892" (sense mU*mU*mGmGmGmCfAmAfAfGfGmUmGmGmAmAmAmUmGmA*mA*{L354}; antisense {VP}-mU*fU*mCmAmUfUmUfCfCmAmCmCmUfUmUfGmCmCmCmAmA*mG*mU)”, the EC50 in series [2] was under 10 nM. For the substance “AD-2639645 (sense mU*mU*mGmGmGmCfAmAfAfGfGmUmGmGmAmAmAmUmGmA*mA*{L373Z511}; antisense {VP}-mU*fU*mCmAmUfUmUfCfCmAmCmCmUfUmUfGmCmCmCmAmA*mG*mU; siRNA)”, the EC50 in series [2] was over 100 nM. Take “AD-2639646 (sense mU*mU*mGmGmGmCfAmAfAfGfGmUmGmGmAmAmAmUmGmA*mA*{L373Z512}; antisense {VP}-mU*fU*mCmAmUfUmUfCfCmAmCmCmUfUmUfGmCmCmCmAmA*mG*mU; siRNA)”: in series [2], the EC50 was in the range of 10 to 100 nM. Consider “AD-2639647 (sense mU*mU*mGmGmGmCfAmAfAfGfGmUmGmGmAmAmAmUmGmA*mA*{L373Z513}; antisense {VP}-mU*fU*mCmAmUfUmUfCfCmAmCmCmUfUmUfGmCmCmCmAmA*mG*mU; siRNA)”, for which, in series [2], the 50% effective concentration (EC50) was under 10 nM.
